# Legend:
# [1] = Crystal form stability study (influencing factor experiments); assay type: physicochemical; conditions: for Physical and chemical properties (conclusion of influencing factor experiments): high temperatures and high humidities for 30 days
# Experimental: Samples of the crystal forms A, B, C, I, J, and K of the compound represented by formula (I) were taken, spread in open containers, and left to stand under conditions of light exposure (4500 Lux), high temperatures (40° C. and 60° C.), and high humidities (RH 75% and RH 92.5%) for 30 days to investigate their stability, and the results are shown in Table 16.
# [2] = Long-term/accelerated stability; assay type: physicochemical
# [3] = 40° C., 10 days, open container
# [4] = 40° C., 30 days, open container
# [5] = 60° C., 10 days, open container
# [6] = 60° C., 30 days, open container
# [7] = 75% RH, 10 days, open container
# [8] = 75% RH, 30 days, open container
# [9] = 92.5% RH, 5 days, open container
# [10] = 92.5% RH, 10 days, open container
# [11] = 92.5% RH, 30 days, open container
# [12] = light exposure (4500 Lux), 5 days, open container
# [13] = light exposure (4500 Lux), 10 days, open container
# [14] = light exposure (4500 Lux), 30 days, open container
smiles,measurement,setting,value
"CCc1c(F)ccc2cc(O)cc(-c3nc4c5c(nc(OC[C@@]67CCCN6C[C@H](F)C7)nc5c3F)N3C[C@H]5CC[C@H](N5)[C@H]3CO4)c12 [Crystal form B, 5-Ethyl-6-fluoro-4-((5aS,6S,9R)-1-fluoro-12-(((2R,7aS)-2-fluorotetrahydro-1H-pyrrolizin-7a(5H)-yl)methoxy)-5a,6,7,8,9,10-hexahydro-5H-4-oxa-3,10a,11,13,14-pentaaza-6,9-methanonaphtho[1,8-ab]heptalen-2-yl)naphthalen-2-ol]",Color and state,"[1]; 40° C., 5 days, open container",Off-white solid
same,Crystal form,"[1]; 40° C., 5 days, open container",Did not change
same,Purity %,"[1]; 40° C., 5 days, open container",99.3%
same,Color and state,[1]; [3],Off-white solid
same,Crystal form,[1]; [3],Did not change
same,Purity %,[1]; [3],99.3%
same,Color and state,[1]; [4],Off-white solid
same,Crystal form,[1]; [4],Did not change
same,Purity %,[1]; [4],99.2%
same,Color and state,"[1]; 60° C., 5 days, open container",Off-white solid
same,Crystal form,"[1]; 60° C., 5 days, open container",Did not change
same,Purity %,"[1]; 60° C., 5 days, open container",99.3%
same,Color and state,[1]; [5],Off-white solid
same,Crystal form,[1]; [5],Did not change
same,Purity %,[1]; [5],99.2%
same,Color and state,[1]; [6],Off-white solid
same,Crystal form,[1]; [6],Did not change
same,Purity %,[1]; [6],99.1%
same,Color and state,"[1]; 75% RH, 5 days, open container",Off-white solid
same,Crystal form,"[1]; 75% RH, 5 days, open container",Did not change
same,Purity %,"[1]; 75% RH, 5 days, open container",99.3%
same,Color and state,[1]; [7],Off-white solid
same,Crystal form,[1]; [7],Did not change
same,Purity %,[1]; [7],99.4%
same,Color and state,[1]; [8],Off-white solid
same,Crystal form,[1]; [8],Did not change
same,Purity %,[1]; [8],99.3%
same,Color and state,[1]; [9],Off-white solid
same,Crystal form,[1]; [9],Did not change
same,Purity %,[1]; [9],99.4%
same,Color and state,[1]; [10],Off-white solid
same,Crystal form,[1]; [10],Did not change
same,Purity %,[1]; [10],99.4%
same,Color and state,[1]; [11],Off-white solid
same,Crystal form,[1]; [11],Did not change
same,Purity %,[1]; [11],99.4%
same,Color and state,"[1]; Initial, 0 days",Off-white solid
same,Purity %,"[1]; Initial, 0 days",99.4%
same,Physical and chemical properties (conclusion of influencing factor experiments),[1],good physical and chemical properties
same,Color and state,[1]; [12],Off-white solid
same,Crystal form,[1]; [12],Did not change
same,Purity %,[1]; [12],99.0%
same,Color and state,[1]; [13],Off-white solid
same,Crystal form,[1]; [13],Did not change
same,Purity %,[1]; [13],99.1%
same,Color and state,[1]; [14],Pale yellow solid
same,Crystal form,[1]; [14],Did not change
same,Purity %,[1]; [14],97.6%
same,Purity % 1 month,[2]; 25° C./60% RH,99.4%
same,Purity % 3 months,[2]; 25° C./60% RH,99.3%
same,Purity % 6 months,[2]; 25° C./60% RH,99.3%
same,Purity % Initial,[2]; 25° C./60% RH,99.4%
same,Purity % 1 month,[2]; 40° C./75% RH,99.3%
same,Purity % 3 months,[2]; 40° C./75% RH,99.2%
same,Purity % 6 months,[2]; 40° C./75% RH,99.1%
same,Purity % Initial,[2]; 40° C./75% RH,99.4%
"CCc1c(F)ccc2cc(O)cc(-c3nc4c5c(nc(OC[C@@]67CCCN6C[C@H](F)C7)nc5c3F)N3C[C@H]5CC[C@H](N5)[C@H]3CO4)c12 [Crystal form J, 5-Ethyl-6-fluoro-4-((5aS,6S,9R)-1-fluoro-12-(((2R,7aS)-2-fluorotetrahydro-1H-pyrrolizin-7a(5H)-yl)methoxy)-5a,6,7,8,9,10-hexahydro-5H-4-oxa-3,10a,11,13,14-pentaaza-6,9-methanonaphtho[1,8-ab]heptalen-2-yl)naphthalen-2-ol]",Color and state,"[1]; 40° C., 5 days, open container",Off-white solid
same,Crystal form,"[1]; 40° C., 5 days, open container",Did not change
same,Purity %,"[1]; 40° C., 5 days, open container",99.2%
same,Color and state,[1]; [3],Off-white solid
same,Crystal form,[1]; [3],Did not change
same,Purity %,[1]; [3],98.8%
same,Color and state,[1]; [4],Off-white solid
same,Crystal form,[1]; [4],Did not change
same,Purity %,[1]; [4],97.9%
same,Color and state,"[1]; 60° C., 5 days, open container",Off-white solid
same,Crystal form,"[1]; 60° C., 5 days, open container",Did not change
same,Purity %,"[1]; 60° C., 5 days, open container",99.1%
same,Color and state,[1]; [5],Off-white solid
same,Crystal form,[1]; [5],Did not change
same,Purity %,[1]; [5],98.5%
same,Color and state,[1]; [6],Off-white solid
same,Crystal form,[1]; [6],Did not change
same,Purity %,[1]; [6],97.4%
same,Color and state,"[1]; 75% RH, 5 days, open container",Off-white solid
same,Crystal form,"[1]; 75% RH, 5 days, open container",Did not change
same,Purity %,"[1]; 75% RH, 5 days, open container",99.6%
same,Color and state,[1]; [7],Off-white solid
same,Crystal form,[1]; [7],Did not change
same,Purity %,[1]; [7],99.6%
same,Color and state,[1]; [8],Off-white solid
same,Crystal form,[1]; [8],Did not change
same,Purity %,[1]; [8],99.5%
same,Color and state,[1]; [9],Off-white solid
same,Crystal form,[1]; [9],Did not change
same,Purity %,[1]; [9],99.6%
same,Color and state,[1]; [10],Off-white solid
same,Crystal form,[1]; [10],Did not change
same,Purity %,[1]; [10],99.5%
same,Color and state,[1]; [11],Off-white solid
same,Crystal form,[1]; [11],Did not change
same,Purity %,[1]; [11],99.5%
same,Color and state,"[1]; Initial, 0 days",Off-white solid
same,Crystal form,"[1]; Initial, 0 days",Crystal form J
same,Purity %,"[1]; Initial, 0 days",99.6%
same,Physical and chemical properties (conclusion of influencing factor experiments),[1],good physical and chemical properties
same,Color and state,[1]; [12],Off-white solid
same,Crystal form,[1]; [12],Did not change
same,Purity %,[1]; [12],98.1%
same,Color and state,[1]; [13],Pale yellow solid
same,Crystal form,[1]; [13],Did not change
same,Purity %,[1]; [13],95.5%
same,Color and state,[1]; [14],Pale yellow solid
same,Crystal form,[1]; [14],Did not change
same,Purity %,[1]; [14],93.0%
same,Purity % 1 month,[2]; 25° C./60% RH,99.5%
same,Purity % 2 months,[2]; 25° C./60% RH,99.6%
same,Purity % 3 months,[2]; 25° C./60% RH,99.6%
same,Purity % Initial,[2]; 25° C./60% RH,99.6%
same,Purity % 1 month,[2]; 40° C./75% RH,99.4%
same,Purity % 2 months,[2]; 40° C./75% RH,99.3%
same,Purity % 3 months,[2]; 40° C./75% RH,99.2%
same,Purity % Initial,[2]; 40° C./75% RH,99.6%

# Source: patent US20260209250A1, “CRYSTAL FORM OF KRAS G12D INHIBITOR AND PREPARATION METHOD THEREFOR” (priority 2022, published 2026)
